Source: publication PMC9738927, “A Newly Identified Monoterpenoid-Based Small Molecule Able to Support the Survival of Primary Cultured Dopamine Neurons and Alleviate MPTP-Induced Toxicity In Vivo” (Molecules, 2022)

Test system: nigrostriatal dopamine system of MPTP-treated mice
Assay: TH immunohistochemistry of striatum and substantia nigra in MPTP-treated mice
Type: in vivo, C57Bl/6 male mice
Method: The samples were collected 7 days after the last administration of PA96. Mice were anesthetized using terminal phenobarbital injection (50 mg/kg), perfused trans-cardially with PBS, and then 4% paraformaldehyde in PBS in accordance with. The brains were collected, treated, and embedded into paraffin blocks using the histological complex Microm (Fürth, Germany).
To analyze the effect of PA96 in dopamine neurons in vivo, tyrosine hydroxylase immunohistochemistry was performed as described previously. The PFA-fixed and paraffin-embedded brains were cut into 5 µm thick sections (3 sections per slide), and every fifth slide was taken for TH staining. The sections were deparaffinized, followed by a citrate antigen retrieval procedure. Endogenous peroxidase was inactivated by 30 min incubation with 3% H2O2. The sections were blocked with 5% normal goat serum and then probed with monoclonal TH antibody (1:2000, Millipore Cat# MAB318 Lot# RRID:AB_2201528) overnight at +4 °C. The sections were washed, and biotinylated horse antimouse secondary antibody (1:200, Cat# BA-2001, Vector Laboratories, Burlingame, CA, USA) was applied for 1 h, followed by washing. […]
The sections were scanned with an automated scanner (3DHistech, Budapest, Hungary), and the images were converted to 16-bit grayscale. […] The integrated optical densities in images were measured in ImageJ (NIH) and divided by area in pixels.

C=C(C)[C@@H]1CC=C(C)[C@@H](Sc2nc[nH]n2)[C@@H]1O [PA96, (1R,2R,6S)-2-(1H-1,2,4-triazol-3-ylthio)-3-methyl-6-(prop-1-en-2-yl)cyclohex-3-enol]
increase of the number of TH-positive neurons in SN (1 mg/kg, compared to MPTP-treated mice): 37%
density of TH-positive fibers in the striatum (loss induced by MPTP) (1 and 10 mg/kg): not alleviated
